Patent US9192672B2, “Zwitterion solution for low-volume therapeutic delivery” (Wayne State University Board of Governors, priority 2007, dated 2015)
Converted amounts (≈) assume the structure as drawn.

Legend:
physchem [1] = conditions: aqueous buffer, thermodynamic from solid
Solubility in saline = type: physicochemical; conditions: for solubility: saline, saline or isotonic
[2] = Solubility in artificial cerebrospinal fluid (aCSF); conditions: Table 2, artificial CSF
physchem [3] = conditions: saline or isotonic, thermodynamic from solid
[4] = cited from earlier work
[5] = artificial cerebrospinal fluid (aCSF)

SMILES | solubility (physchem [1]; MPI solution or aCSF) | solubility (Solubility in saline; Table 2, saline) | Solubility In Artificial CSF [2] | solubility (physchem [1]) | also measured
CO/N=C(\C(=O)N[C@@H]1C(=O)N2C(C(=O)O)=C(CSc3nc(=O)c(=O)[nH]n3C)CS[C@H]12)c1csc(N)n1 [Ceftriaxone, ceftriaxone] | > 205 µg/mL | 205 µg/mL (≈ 370 µM) | >250 µg/mL |  | solubility (physchem [1]; multivalent physiologic ion (MPI) solution): ≥ 700 µg/mL; solubility (Solubility in saline; Table 1, saline): 205 µg/mL (≈ 370 µM); solubility (Solubility in saline; text of Examples 8-14): 205 µg/mL (≈ 370 µM); solubility (physchem [3]; [5]): > 250 µg/mL
CC(Cc1ccc(OCC(=O)O)cc1)NCC(O)c1csc(C(F)(F)F)n1 (stereo not shown) [(4-{2-[2-hydroxy-2-(2-trifluoromethyl-thiazol-4-yl)-ethylamino]-propyl}-phenoxy)-acetic acid] |  |  |  | > 205 µg/mL | 
C=CC1=C(C(=O)O)N2C(=O)[C@@H](NC(=O)/C(=N\OCC(=O)O)c3csc(N)n3)[C@H]2SC1 [cefixime] | > 205 µg/mL | 55 µg/mL (≈ 121 µM) | >80 µg/mL |  | Solubility In Saline (Solubility in saline; Table 2, saline): 68 µg/mL (≈ 150 µM); solubility (physchem [3]; [5]): > 72 µg/mL
C=CC1=C(C(=O)O)N2C(=O)[C@@H](NC(=O)/C(=N\O)c3csc(N)n3)[C@H]2SC1 [cefdinir] |  |  |  | > 205 µg/mL | 
COCC1=C(C(=O)O)N2C(=O)[C@@H](NC(=O)/C(=N\OC)c3csc(N)n3)[C@H]2SC1 [cefpodoxime] |  |  |  | > 205 µg/mL | 
NCC(CC(=O)O)c1ccc(Cl)cc1 (stereo not shown) [baclofen] |  |  |  |  | Concentration achieved in aCSF ([4]; differing forms of aCSF, earlier in vivo studies): less than 0.21 mg/ml; Solubility in aqueous saline solution ([4]; extreme heating at 100° Celsius, sonication, high speed stirring, US 2006/0009523): ≤ 12000 µg/mL; Concentration by back titration method ([4]; initial dissolution in acid pH below 3.87, then base, US 2006/0009523): ~10000 µg/mL
NC1C2CN(c3nc4c(cc3F)c(=O)c(C(=O)O)cn4-c3ccc(F)cc3F)CC12 (stereo not shown) [7-(6-amino-3-aza-bicyclo[3.1.0]hex-3-yl)-1-(2,4-difluoro-phenyl)-6-fluoro-4-oxo-1,4-dihydro-[1,8]naphthyridine-3-carboxylic acid] |  |  |  | > 205 µg/mL | 
CCOC(=O)C1=C(COCCNC(=O)/C=C\C(=O)O)NC(C)=C(C(=O)OC)C1c1ccccc1Cl (stereo not shown) [(Z)-4-[(2-{[4-(2-chlorophenyl)-3-(ethoxycarbonyl)-5-(methoxycarbonyl)-6-methyl-1,4-dihydro-2-pyridinyl]methoxy}ethyl)amino]-4-oxo-2-butenoic acid] | > 205 µg/mL |  |  |  | 
CO/N=C(\C(=O)N[C@@H]1C(=O)N2C(C(=O)[O-])=C(C[N+]3(C)CCCC3)CS[C@H]12)c1csc(N)n1 [cefepime] |  | 66 µg/mL (≈ 137 µM) |  | > 205 µg/mL | solubility (physchem [3]): > 78 µg/mL
CC(=O)OCC1=C(C(=O)O)N2C(=O)[C@@H](NC(=O)CSc3ccncc3)[C@H]2SC1 [cephaprine] |  |  | >1200 µg/mL |  | Solubility In Saline (Solubility in saline; Table 2, saline): 1000 µg/mL (≈ 2360 µM)
